According to the supplement of paper PMC4862054:
Where “and” joins values, the source holds several entries; their conditions need not be identical. Equal values may be shown once.

How the values were obtained:
Test in all cases: normalised viability (% of control), CellTiter-Blue; higher = more viable cells (about 100 = DMSO control)
Settings in all cases: incubation time: 72 h
CAL-148 [1] = system: CAL-148
Method: (§1)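 DSRT, CellTiter-Blue viability, 72 h incubation. Signal is normalised to DMSO and benzethonium chloride controls. Value is the normalised response at dose 8.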

CAL-51 [2] = system: CAL-51
Method: as §1

CAL-85-1 [3] = system: CAL-85-1
Method: as §1

DU-4475 [4] = system: DU-4475
Method: as §1

HDQ-P1 [5] = system: HDQ-P1
Method: as §1

MDA-MB-453 [6] = system: MDA-MB-453
Method: as §1

CAL-148 [7] = system: CAL-148; remark: listed apart in the source
Method: (§2)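 DSRT, CellTiter-Blue viability, 72 h incubation. Signal is normalised to DMSO and benzethonium chloride controls. Value is the normalised response at dose 6.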

CAL-51 [8] = system: CAL-51; remark: listed apart in the source
Method: as §2

CAL-85-1 [9] = system: CAL-85-1; remark: listed apart in the source
Method: as §2

DU-4475 [10] = system: DU-4475; remark: listed apart in the source
Method: as §2

HDQ-P1 [11] = system: HDQ-P1; remark: listed apart in the source
Method: as §2

MDA-MB-453 [12] = system: MDA-MB-453; remark: listed apart in the source
Method: as §2

Row | Structure (SMILES) | normalised viability (CAL-148 [1]) | normalised viability (CAL-51 [2]) | normalised viability (CAL-85-1 [3]) | normalised viability (DU-4475 [4]) | normalised viability (HDQ-P1 [5]) | normalised viability (MDA-MB-453 [6]) | normalised viability (CAL-148 [7]) | normalised viability (CAL-51 [8]) | normalised viability (CAL-85-1 [9]) | normalised viability (DU-4475 [10]) | normalised viability (HDQ-P1 [11]) | normalised viability (MDA-MB-453 [12])
1 | Cc1c(CN2CCN(C(=O)[C@H](C)O)CC2)sc2c(N3CCOCC3)nc(-c3cnc(N)nc3)nc12 [GDC-0980] (3000 nM) | 5.28% | 7.42% | 16.9% | 19.4% | 14.2% | 6.67% | – | – | – | – | – | –
2 | Nc1cccc2c1CN(C1CCC(=O)NC1=O)C2=O (configuration not stated) [Lenalidomide] (300 nM) | – | – | – | – | – | – | 92% and 96.1% | 107% and 103% | 87.3% and 90.2% | 103% and 86.6% | 66.2% and 69.3% | 97.7% and 101%
3 | Nc1cccc2c1CN(C1CCC(=O)NC1=O)C2=O (configuration not stated) [Lenalidomide] (3000 nM) | 80.2% and 98.3% | 109% and 105% | 88.6% and 90.2% | 101% and 100% | 93.5% and 92.2% | 96.9% and 117% | – | – | – | – | – | –
4 | C[C@]12O[C@H](C[C@]1(O)CO)n1c3ccccc3c3c4c(c5c6ccccc6n2c5c31)CNC4=O [Lestaurtinib] (30 nM) | – | – | – | – | – | – | 107% | 111% | 114% | 91.3% | 84.5% | 105%
5 | C[C@]12O[C@H](C[C@]1(O)CO)n1c3ccccc3c3c4c(c5c6ccccc6n2c5c31)CNC4=O [Lestaurtinib] (300 nM) | 75.9% | 76.5% | 65% | 26.7% | 92.4% | 50.2% | – | – | – | – | – | –
6 | O=C1c2c(O)ccc(O)c2C(=O)c2c(NCCNCCO)ccc(NCCNCCO)c21 [Mitoxantrone] (30 nM) | – | – | – | – | – | – | 56.1% | 42.9% | 73.1% | 21.7% | 63.9% | 98%
7 | O=C1c2c(O)ccc(O)c2C(=O)c2c(NCCNCCO)ccc(NCCNCCO)c21 [Mitoxantrone] (300 nM) | 12.7% | 28% | 59.1% | 9.52% | 52.5% | 66% | – | – | – | – | – | –
8 | Nc1ccccc1NC(=O)c1ccc(CNc2nccc(-c3cccnc3)n2)cc1 [Mocetinostat] (300 nM) | – | – | – | – | – | – | 87.5% | 92.9% | 85.8% | 81.9% | 57.8% | 69%
9 | Nc1ccccc1NC(=O)c1ccc(CNc2nccc(-c3cccnc3)n2)cc1 [Mocetinostat] (3000 nM) | 37.3% | 51.7% | 23.6% | 5.41% | 71.6% | 20.6% | – | – | – | – | – | –
10 | COc1nc(N)nc2c1ncn2[C@@H]1O[C@H](CO)[C@@H](O)[C@@H]1O [Nelarabine] (3000 nM) | 90.6% and 84.7% | 102% and 97.6% | 94.5% and 98% | 121% and 112% | 74.7% and 87.7% | 86.7% and 106% | – | – | – | – | – | –
11 | Cc1ccc(Nc2nccc(N(C)c3ccc4c(C)n(C)nc4c3)n2)cc1S(N)(=O)=O [Pazopanib] (300 nM) | – | – | – | – | – | – | 85.7% | 95.6% | 96.1% | 102% | 64% | 88.4%
12 | Cc1ccc(Nc2nccc(N(C)c3ccc4c(C)n(C)nc4c3)n2)cc1S(N)(=O)=O [Pazopanib] (3000 nM) | 67.7% | 87.6% | 96% | 110% | 77.9% | 42.5% | – | – | – | – | – | –
13 | O=C(CCBr)N1CCN(C(=O)CCBr)CC1 [Pipobroman] (300 nM) | – | – | – | – | – | – | 107% | 106% | 101% | 110% | 87.1% | 113%
14 | O=C(CCBr)N1CCN(C(=O)CCBr)CC1 [Pipobroman] (3000 nM) | 104% | 124% | 102% | 106% | 100% | 108% | – | – | – | – | – | –
15 | c1cc(CN2CCCNCCNCCCNCC2)ccc1CN1CCCNCCNCCCNCC1 [Plerixafor] (75 nM) | – | – | – | – | – | – | 85.9% | 103% | 95% | 101% | 84% | 93.3%
16 | c1cc(CN2CCCNCCNCCCNCC2)ccc1CN1CCCNCCNCCCNCC1 [Plerixafor] (750 nM) | 79.1% | 103% | 93% | 95.9% | 119% | 92.5% | – | – | – | – | – | –
17 | C[C@]12C=CC(=O)C=C1CC[C@@H]1[C@@H]2[C@@H](O)C[C@@]2(C)[C@H]1CC[C@]2(O)C(=O)CO [Prednisolone] (300 nM) | – | – | – | – | – | – | 105% | 104% | 110% | 113% | 64.2% | 79.4%
18 | C[C@]12C=CC(=O)C=C1CC[C@@H]1[C@@H]2[C@@H](O)C[C@@]2(C)[C@H]1CC[C@]2(O)C(=O)CO [Prednisolone] (3000 nM) | 96% | 102% | 117% | 106% | 121% | 75.4% | – | – | – | – | – | –
19 | CNC(=O)c1cc(Oc2ccc(NC(=O)Nc3ccc(Cl)c(C(F)(F)F)c3)cc2)ccn1 [Sorafenib] (30 nM) | – | – | – | – | – | – | 109% and 91.4% | 108% and 101% | 97.6% and 103% | 101% and 115% | 81.1% and 72.2% | 106% and 99.1%
20 | CCN(CC)CCNC(=O)c1c(C)[nH]c(/C=C2\C(=O)Nc3ccc(F)cc32)c1C [Sunitinib] (30 nM) | – | – | – | – | – | – | 99.5% and 101% | 111% and 91.1% | 96.7% and 96.2% | 84.4% and 92.7% | 74.4% and 92.3% | 93.3% and 81.3%
21 | CCN(CC)CCNC(=O)c1c(C)[nH]c(/C=C2\C(=O)Nc3ccc(F)cc32)c1C [Sunitinib] (300 nM) | 93.2% and 108% | 113% and 96% | 107% and 105% | 102% and 94.5% | 97.1% and 115% | 101% and 83.8% | – | – | – | – | – | –
22 | CC[C@@]1(O)C(=O)OCc2c1cc1n(c2=O)Cc2cc3c(CN(C)C)c(O)ccc3nc2-1 [Topotecan] (30 nM) | – | – | – | – | – | – | 71.3% | 94.8% | 95.9% | 56.8% | 82.3% | 90.6%
